From patent publication US8846710B2, “Method of preferentially inducing the biosynthesis of interferon” (3M Innovative Properties Company, priority 2005, dated 2014)

How the values were obtained:
interferon (α) (IFN-α) = assay: Cytokine induction in human cells: IFN-α secreted by PBMC into culture media (ELISA); type: cell-based; conditions: for Maximal Response IFN / Minimum Effective Concentration IFN / minimal effective concentration: human PBMC; for Maximal Response IFN / Minimum Effective Concentration IFN: median where tested in more than one experiment; for Maximal Response (pg/mL) IFN: maximal response in dose response curve, median; for minimal effective concentration: lowest tested concentration inducing IFN-α over usually 20 pg/mL, median where more than one experiment, read-out: Minimum Effective Concentration (μM) IFN
Source text: (§1) Cytokine Induction in Human Cells
(§2) An in vitro human blood cell system is used to assess cytokine induction. Activity is based on the measurement of interferon (α) and tumor necrosis factor (α) (IFN-α and TNF-α, respectively) secreted into culture media as described by Testerman et. al. in “Cytokine Induction by the Immunomodulators Imiquimod and S-27609”, Journal of Leukocyte Biology, 58, 365-372 (September, 1995).
(§3) Blood Cell Preparation for Culture
(§4) Whole blood from healthy human donors is collected by venipuncture into vacutainer tubes or syringes containing EDTA. Peripheral blood mononuclear cells (PBMC) are separated from whole blood by density gradient centrifugation using HISTOPAQUE-1077 (Sigma, St. Louis, Mo.) or Ficoll-Paque Plus (Amersham Biosciences Piscataway, N.J.). Blood is diluted 1:1 with Dulbecco's Phosphate Buffered Saline (DPBS) or Hank's Balanced Salts Solution (HBSS). Alternately, whole blood is placed in Accuspin (Sigma) or LeucoSep (Oreiner Bio-One, Inc., Longwood, Fla.) centrifuge frit tubes containing density gradient medium. The PBMC layer is collected and washed twice with DPBS or HBSS and re-suspended at 4×10^6 cells/mL in RPMI complete. The PBMC suspension is added to 96 well flat bottom sterile tissue culture plates containing an equal volume of RPMI complete media containing test compound.
(§5) The compounds are solubilized in dimethyl sulfoxide (DMSO). The DMSO concentration should not exceed a final concentration of 1% for addition to the culture wells. The compounds are generally tested at concentrations ranging from 30-0.014 μM. Controls include cell samples with media only, cell samples with DMSO only (no compound), and cell samples with reference compound.
(§6) The solution of test compound is added at 60 μM to the first well containing RPMI complete and serial 3 fold dilutions are made in the wells. The PBMC suspension is then added to the wells in an equal volume, bringing the test compound concentrations to the desired range (usually 30-0.014 μM). The final concentration of PBMC suspension is 2×10^6 cells/mL. The plates are covered with sterile plastic lids, mixed gently and then incubated for 18 to 24 hours at 37° C. in a 5% carbon dioxide atmosphere.
(§7) Following incubation the plates are centrifuged for 10 minutes at 1000 rpm (approximately 200×g) at 4° C. The cell-free culture supernatant is removed and transferred to sterile polypropylene tubes. Samples are maintained at −30 to −70° C. until analysis. The samples are analyzed for IFN-α by ELISA and for TNF-α by IGEN/BioVeris Assay.
(§8) Interferon (α) and Tumor Necrosis Factor (α) Analysis
IFN-α concentration is determined with a human multi-subtype calorimetric sandwich ELISA (Catalog Number 41105) from PBL Biomedical Laboratories, Piscataway, N.J. Results are expressed in pg/mL.
(§9) In total, the data output of the assay consists of concentration values of TNF-α and IFN-α (y-axis) as a function of compound concentration (x-axis).
Analysis of the data has two steps. First, the greater of the mean DMSO (DMSO control wells) or the experimental background (usually 20 pg/mL for IFN-α and 40 pg/mL for TNF-α) is subtracted from each reading. If any negative values result from background subtraction, the reading is reported as “*”, and is noted as not reliably detectable. In subsequent calculations and statistics, “*”, is treated as a zero. Second, all background subtracted values are multiplied by a single adjustment ratio to decrease experiment to experiment variability. The adjustment ratio is the area of the reference compound in the new experiment divided by the expected area of the reference compound based on the past 61 experiments (unadjusted readings). […] The reference compound used is 2-[4-amino-2-ethoxymethyl-6,7,8,9-tetrahydro-α,α-dimethyl-1H-imidazo[4,5-c]quinolin-1-yl]ethanol hydrate (U.S. Pat. No. 5,352,784; Example 91) and the expected area is the sum of the median dose values from the past 61 experiments. […]

[1] = tested on: tumor necrosis factor (α) (TNF-α); assay: Cytokine induction in human cells: TNF-α secreted by PBMC into culture media (ORIGEN M-Series immunoassay); type: cell-based; parameters: key to Maximal Response (pg/mL) TNF / Maximal Response TNF: If any negative values result from background subtraction, the reading is reported as “*”, and is noted as not reliably detectable; conditions: for Minimum Effective Concentration TNF / Maximal Response TNF / minimal effective concentration: human PBMC; for Minimum Effective Concentration TNF: median where tested in more than one experiment; for Maximal Response TNF / Maximal Response (pg/mL) TNF: median; for Maximal Response (pg/mL) TNF: maximal response in dose response curve; for minimal effective concentration: lowest tested concentration inducing TNF-α over usually 40 pg/mL, median where more than one experiment, read-out: Minimum Effective Concentration (μM) TNF
Source text: as §1, §2, §3, §4, §5, §6, §7, §8
The TNF-α concentration is determined by ORIGEN M-Series Immunoassay and read on an IGEN M-8 analyzer from BioVeris Corporation, formerly known as IGEN International, Gaithersburg, Md. The immunoassay uses a human TNF-α capture and detection antibody pair (Catalog Numbers AHC3419 and AHC3712) from Biosource International, Camarillo, Calif. Results are expressed in pg/mL.
as §9
Analysis of the data has two steps. First, the greater of the mean DMSO (DMSO control wells) or the experimental background (usually 20 pg/mL for IFN-α and 40 pg/mL for TNF-α) is subtracted from each reading. If any negative values result from background subtraction, the reading is reported as “*”, and is noted as not reliably detectable. In subsequent calculations and statistics, “*”, is treated as a zero. Second, all background subtracted values are multiplied by a single adjustment ratio to decrease experiment to experiment variability. The adjustment ratio is the area of the reference compound in the new experiment divided by the expected area of the reference compound based on the past 61 experiments (unadjusted readings). […]

[2] = Table 11, * = TNF below experimental background of 40 pg/mL
[3] = Table 10, * = below experimental background level
[4] = Table 12, * = below the experimental background of 40 pg/mL
[5] = Table 8, background-subtracted, reference-adjusted

Row | Compound | Maximal Response IFN (interferon (α) (IFN-α); Table 11) | Minimum Effective Concentration IFN (interferon (α) (IFN-α); Table 11) | Minimum Effective Concentration TNF ([1]; Table 11) | Maximal Response TNF [1, 2] | also measured
1 | CCOCc1nc2c(N)nc3ccccc3c2n1CCCCNS(C)(=O)=O [Analog 51] | 2581 pg/mL | 0.04 µM | 1.11 µM | 1439 pg/mL | –
2 | CC(C)C(=O)NCCCCn1c(CO)nc2c(N)nc3cc(-c4cccnc4)ccc3c21 [Example 199] | – | – | – | – | Maximal Response (pg/mL) IFN (interferon (α) (IFN-α); [3]): 5880 pg/mL; Maximal Response (pg/mL) TNF [1, 3]: 217 pg/mL
3 | COCCc1nc2c(N)nc3cc(-c4cncc(CO)c4)ccc3c2n1CC(C)C [Analog 27] | – | – | – | – | minimal effective concentration (interferon (α) (IFN-α); Table 10): 0.014 µM; Maximal Response (pg/mL) IFN (interferon (α) (IFN-α); [3]): 1332 pg/mL; minimal effective concentration ([1]; Table 10): 0.04 µM; Maximal Response (pg/mL) TNF [1, 3]: 9563 pg/mL
4 | Cc1nc2c(N)nc3ccccc3c2n1CCCNC(=O)C(C)C [Analog 123] | 3011 pg/mL | 1.11 µM | 10 µM | 405 pg/mL | –
5 | Cc1nc2c(N)nc3cccnc3c2n1CC(C)C [Analog 133, 2-methyl-1-(2-methylpropyl)-1H-imidazo[4,5-c][1,5]naphthyridin-4-amine] | – | – | – | – | Maximal Response IFN (interferon (α) (IFN-α); Table 12): 1117 pg/mL; Maximal Response TNF [1, 4]: 699 pg/mL
6 | COCCc1nc2c(N)nc3ccccc3c2n1CCCCNC(=O)N1CCOCC1 [Analog 57] | 8889 pg/mL | 0.014 µM | 0.04 µM | 3494 pg/mL | –
7 | CCOCc1nc2c(N)nc3cccnc3c2n1CC(C)(C)O [Analog 6, 1-(4-amino-2-ethoxymethyl-1H-imidazo[4,5-c][1,5]naphthyridin-1-yl)-2-methylpropan-2-ol] | – | – | – | – | Maximal Response (pg/mL) IFN (interferon (α) (IFN-α); [5]): 658 pg/mL; Maximal Response IFN (interferon (α) (IFN-α); Table 12): 1674 pg/mL; Maximal Response (pg/mL) TNF [1, 5]: 4921 pg/mL; Maximal Response TNF [1, 4]: 7275 pg/mL
8 | Cc1nc2c(N)nc3ccccc3c2n1CCCN [Analog 84] | 421 pg/mL | 3.33 µM | >30 µM | * | –
9 | CS(=O)(=O)NCCCCn1c(CO)nc2c(N)nc3ccccc3c21 [Example 368, N-[4-(4-amino-2-hydroxymethyl-1H-imidazo[4,5-c]quinolin-1-yl)butyl]methanesulfonamide] | 7220 pg/mL | – | – | * | –
10 | CCCc1nc2c(N)nc3cc(-c4cccnc4)ccc3c2n1CCCCNC(=O)NC1CCCC1 [Analog 34] | – | – | – | – | minimal effective concentration (interferon (α) (IFN-α); Table 10): 0.014 µM; Maximal Response (pg/mL) IFN (interferon (α) (IFN-α); [3]): 649 pg/mL; minimal effective concentration ([1]; Table 10): 0.37 µM; Maximal Response (pg/mL) TNF [1, 3]: 9019 pg/mL
11 | CCCc1nc2c(N)nc3cc(-c4cccnc4)ccc3c2n1CCCCNC(=O)C(C)C [Analog 38] | – | – | – | – | minimal effective concentration (interferon (α) (IFN-α); Table 10): 0.12 µM; Maximal Response (pg/mL) IFN (interferon (α) (IFN-α); [3]): 1610 pg/mL; minimal effective concentration ([1]; Table 10): 0.37 µM; Maximal Response (pg/mL) TNF [1, 3]: 960 pg/mL
12 | COCCc1nc2c(N)nc3ccccc3c2n1CCCNS(C)(=O)=O [Analog 62] | 3995 pg/mL | 0.014 µM | 1.11 µM | 954 pg/mL | –
13 | COCCc1nc2c(N)nc3ccccc3c2n1CCCCCCCCNC(=O)c1ccccc1 [Analog 119] | 1584 pg/mL | 0.014 µM | 0.014 µM | 1995 pg/mL | –
14 | COCc1nc2c(N)nc3ccccc3c2n1CC(C)(C)CNC(=O)c1ccccc1 [Analog 94] | 2518 pg/mL | 1.11 µM | 3.33 µM | 9721 pg/mL | –
15 | CS(=O)(=O)NCCCn1c(CCO)nc2c(N)nc3ccccc3c21 [Example 122] | 9651 pg/mL | 3.33 µM | >30 µM | * | –
16 | CCCc1nc2c(N)nc3ccccc3c2n1CC(C)(C)CNS(C)(=O)=O [Analog 65] | 1711 pg/mL | 0.12 µM | 10 µM | 1929 pg/mL | –
17 | COCCc1nc2c(N)nc3ccccc3c2n1CCOCCN(C)C(=O)c1ccccc1 [Analog 120] | 1394 pg/mL | 0.04 µM | 0.37 µM | 3317 pg/mL | –
18 | CCc1nc2c(N)nc3ccccc3c2n1CCCCCS(C)(=O)=O [Analog 74] | 1062 pg/mL | 0.12 µM | 1.11 µM | 1545 pg/mL | –
19 | Cc1nc2c(N)nc3ccccc3c2n1CCCNC(=O)c1ccccc1 [Analog 101] | 571 pg/mL | 1.11 µM | 3.33 µM | 156 pg/mL | –
20 | Nc1nc2ccccc2c2c1nc(CCO)n2CCCCCCCCNC(=O)c1ccccc1 [Example 121] | 2441 pg/mL | 0.37 µM | 3.33 µM | 180 pg/mL | –
21 | Cc1ccc(-c2ccc3c(c2)nc(N)c2nc(CO)n(CC(C)(C)O)c23)cc1 [Example 165] | – | – | – | – | minimal effective concentration (interferon (α) (IFN-α); Table 10): 0.37 µM; minimal effective concentration ([1]; Table 10): 0.37 µM
22 | CCOCc1nc2c(N)nc3ccccc3c2n1CC(C)(C)CS(C)(=O)=O [Analog 124] | 1924 pg/mL | 0.12 µM | 0.37 µM | 9513 pg/mL | –
23 | COCCc1nc2c(N)nc3ccccc3c2n1CCCCNS(C)(=O)=O [Analog 52] | 7594 pg/mL | 0.014 µM | 0.37 µM | 1931 pg/mL | –
24 | COCCc1nc2c(N)nc3ccccc3c2n1CC(C)(C)CNS(C)(=O)=O [Analog 67] | 1805 pg/mL | 0.014 µM | 0.04 µM | 5467 pg/mL | –
